The supplement of paper PMC10307832

How the values were obtained:
Assay in all cases: relative viability (nuclei count vs DMSO), 5 days (fraction); higher = more cells survive
HCC-15 = test system: HCC-15
In short: (§1)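 For relative viability, nuclei counts in treated wells were divided by those in vehicle wells. Lung cancer cell lines had been pin-tool dosed in 1536-well plates the day after seeding and cultured for 5 days, then fixed and stained in one step (final 0.05% Triton X-100, 1% formaldehyde, 1 ug/ml Hoechst) and imaged at 4×. Doses were one drug alone or a fixed anchor-drug dose plus five library-drug doses (not always all listed) in √10 steps, and values are duplicate-plate medians.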

NCI-H1975 = test system: NCI-H1975
In short: as §1

ABC-1 = test system: ABC-1
In short: as §1

ChaGo-K-1 = test system: ChaGo-K-1
In short: as §1

NCI-H322M = test system: NCI-H322M
In short: as §1

CAL-12T = test system: CAL-12T
In short: as §1

NCI-H3122 = test system: NCI-H3122
In short: as §1

NCI-H1666 = test system: NCI-H1666
In short: as §1

NCI-H2126 = test system: NCI-H2126
In short: as §1

EMC-BAC-2 = test system: EMC-BAC-2
In short: as §1

NCI-H1755 = test system: NCI-H1755
In short: as §1

NCI-H358 = test system: NCI-H358
In short: as §1

NCI-H2085 = test system: NCI-H2085
In short: as §1

NCI-H1915 = test system: NCI-H1915
In short: as §1

UMC-11 = test system: UMC-11
In short: as §1

HCC-78 = test system: HCC-78
In short: as §1

COR-L 105 = test system: COR-L 105
In short: as §1

NCI-H441 = test system: NCI-H441
In short: as §1

NCI-H1993 = test system: NCI-H1993
In short: as §1

LXF-289 = test system: LXF-289
In short: as §1

EPLC-272H = test system: EPLC-272H
In short: as §1

HOP-62 = test system: HOP-62
In short: as §1

NCI-H2023 = test system: NCI-H2023
In short: as §1

NC(=O)Nc1cc(-c2cccc(F)c2)sc1C(=O)N[C@H]1CCCNC1 [AZD7762] + COc1cccc2cc(-c3nc([C@H]4CC[C@H](C(=O)O)CC4)n4ncnc(N)c34)[nH]c12 [OSI-027] (partner 0.5 µM)
relative viability (HCC-15; first compound 0.01 µM): 0.664 | relative viability (HCC-15; first compound 0.03162 µM): 0.702 | relative viability (HCC-15; first compound 0.1 µM): 0.72 | relative viability (HCC-15; first compound 0.3162 µM): 0.766 | relative viability (HCC-15; first compound 1 µM): 0.64 | relative viability (NCI-H1975; first compound 0.01 µM): 0.687 | relative viability (NCI-H1975; first compound 0.03162 µM): 0.73 | relative viability (NCI-H1975; first compound 0.1 µM): 0.637 | relative viability (NCI-H1975; first compound 0.3162 µM): 0.615 | relative viability (NCI-H1975; first compound 1 µM): 0.397 | relative viability (ABC-1; first compound 0.01 µM): 0.469 | relative viability (ABC-1; first compound 0.03162 µM): 0.517 | relative viability (ABC-1; first compound 0.1 µM): 0.414 | relative viability (ABC-1; first compound 0.3162 µM): 0.349 | relative viability (ABC-1; first compound 1 µM): 0.161 | relative viability (ChaGo-K-1; first compound 0.01 µM): 0.622 | relative viability (ChaGo-K-1; first compound 0.03162 µM): 0.631 | relative viability (ChaGo-K-1; first compound 0.1 µM): 0.56 | relative viability (ChaGo-K-1; first compound 0.3162 µM): 0.643 | relative viability (ChaGo-K-1; first compound 1 µM): 0.554 | relative viability (NCI-H322M; first compound 0.01 µM): 0.555 | relative viability (NCI-H322M; first compound 0.03162 µM): 0.581 | relative viability (NCI-H322M; first compound 0.1 µM): 0.562 | relative viability (NCI-H322M; first compound 0.3162 µM): 0.254 | relative viability (NCI-H322M; first compound 1 µM): 0.255 | relative viability (CAL-12T; first compound 0.01 µM): 0.676 | relative viability (CAL-12T; first compound 0.03162 µM): 0.73 | relative viability (CAL-12T; first compound 0.1 µM): 0.768 | relative viability (CAL-12T; first compound 0.3162 µM): 0.487 | relative viability (CAL-12T; first compound 1 µM): 0.124 | relative viability (NCI-H3122; first compound 0.01 µM): 1.03 | relative viability (NCI-H3122; first compound 0.03162 µM): 1.1 | relative viability (NCI-H3122; first compound 0.1 µM): 0.995 | relative viability (NCI-H3122; first compound 0.3162 µM): 0.473 | relative viability (NCI-H3122; first compound 1 µM): 0.259 | relative viability (NCI-H1666; first compound 0.01 µM): 0.981 | relative viability (NCI-H1666; first compound 0.03162 µM): 0.921 | relative viability (NCI-H1666; first compound 0.1 µM): 1.03 | relative viability (NCI-H1666; first compound 0.3162 µM): 0.858 | relative viability (NCI-H1666; first compound 1 µM): 0.771 | relative viability (NCI-H2126; first compound 0.01 µM): 0.735 | relative viability (NCI-H2126; first compound 0.03162 µM): 0.772 | relative viability (NCI-H2126; first compound 0.1 µM): 0.783 | relative viability (NCI-H2126; first compound 0.3162 µM): 0.871 | relative viability (NCI-H2126; first compound 1 µM): 0.807 | relative viability (EMC-BAC-2; first compound 0.01 µM): 0.349 | relative viability (EMC-BAC-2; first compound 0.03162 µM): 0.435 | relative viability (EMC-BAC-2; first compound 0.1 µM): 0.465 | relative viability (EMC-BAC-2; first compound 0.3162 µM): 0.345 | relative viability (EMC-BAC-2; first compound 1 µM): 0.405 | relative viability (NCI-H1755; first compound 0.01 µM): 0.826 | relative viability (NCI-H1755; first compound 0.03162 µM): 0.845 | relative viability (NCI-H1755; first compound 0.1 µM): 0.722 | relative viability (NCI-H1755; first compound 0.3162 µM): 0.712 | relative viability (NCI-H1755; first compound 1 µM): 0.44 | relative viability (NCI-H358; first compound 0.01 µM): 0.956 | relative viability (NCI-H358; first compound 0.03162 µM): 0.838 | relative viability (NCI-H358; first compound 0.1 µM): 0.839 | relative viability (NCI-H358; first compound 0.3162 µM): 0.75 | relative viability (NCI-H358; first compound 1 µM): 0.461 | relative viability (NCI-H2085; first compound 0.01 µM): 0.603 | relative viability (NCI-H2085; first compound 0.03162 µM): 0.871 | relative viability (NCI-H2085; first compound 0.1 µM): 0.836 | relative viability (NCI-H2085; first compound 0.3162 µM): 0.765 | relative viability (NCI-H2085; first compound 1 µM): 0.554 | relative viability (NCI-H1915; first compound 0.01 µM): 0.629 | relative viability (NCI-H1915; first compound 0.03162 µM): 0.635 | relative viability (NCI-H1915; first compound 0.1 µM): 0.64 | relative viability (NCI-H1915; first compound 0.3162 µM): 0.638 | relative viability (NCI-H1915; first compound 1 µM): 0.571 | relative viability (UMC-11; first compound 0.01 µM): 0.484 | relative viability (UMC-11; first compound 0.03162 µM): 0.442 | relative viability (UMC-11; first compound 0.1 µM): 0.43 | relative viability (UMC-11; first compound 0.3162 µM): 0.33 | relative viability (UMC-11; first compound 1 µM): 0.241 | relative viability (HCC-78; first compound 0.01 µM): 0.43 | relative viability (HCC-78; first compound 0.03162 µM): 0.452 | relative viability (HCC-78; first compound 0.1 µM): 0.453 | relative viability (HCC-78; first compound 0.3162 µM): 0.357 | relative viability (HCC-78; first compound 1 µM): 0.346 | relative viability (COR-L 105; first compound 0.01 µM): 0.636 | relative viability (COR-L 105; first compound 0.03162 µM): 0.821 | relative viability (COR-L 105; first compound 0.1 µM): 0.543 | relative viability (COR-L 105; first compound 0.3162 µM): 0.472 | relative viability (COR-L 105; first compound 1 µM): 0.406 | relative viability (NCI-H441; first compound 0.01 µM): 0.765 | relative viability (NCI-H441; first compound 0.03162 µM): 0.819 | relative viability (NCI-H441; first compound 0.1 µM): 0.944 | relative viability (NCI-H441; first compound 0.3162 µM): 0.799 | relative viability (NCI-H441; first compound 1 µM): 0.59 | relative viability (NCI-H1993; first compound 0.01 µM): 0.577 | relative viability (NCI-H1993; first compound 0.03162 µM): 0.591 | relative viability (NCI-H1993; first compound 0.1 µM): 0.58 | relative viability (NCI-H1993; first compound 0.3162 µM): 0.532 | relative viability (NCI-H1993; first compound 1 µM): 0.525 | relative viability (LXF-289; first compound 0.01 µM): 0.61 | relative viability (LXF-289; first compound 0.03162 µM): 0.835 | relative viability (LXF-289; first compound 0.1 µM): 0.886 | relative viability (LXF-289; first compound 0.3162 µM): 0.864 | relative viability (LXF-289; first compound 1 µM): 0.971 | relative viability (EPLC-272H; first compound 0.01 µM): 0.299 | relative viability (EPLC-272H; first compound 0.03162 µM): 0.332 | relative viability (EPLC-272H; first compound 0.1 µM): 0.271 | relative viability (EPLC-272H; first compound 0.3162 µM): 0.27 | relative viability (EPLC-272H; first compound 1 µM): 0.115 | relative viability (HOP-62; first compound 0.01 µM): 0.759 | relative viability (HOP-62; first compound 0.03162 µM): 0.89 | relative viability (HOP-62; first compound 0.1 µM): 0.743 | relative viability (HOP-62; first compound 0.3162 µM): 0.71 | relative viability (HOP-62; first compound 1 µM): 0.552 | relative viability (NCI-H2023; first compound 0.01 µM): 0.405 | relative viability (NCI-H2023; first compound 0.03162 µM): 0.331 | relative viability (NCI-H2023; first compound 0.1 µM): 0.216 | relative viability (NCI-H2023; first compound 0.3162 µM): 0.116 | relative viability (NCI-H2023; first compound 1 µM): 0.105
